The target in experiment [1] is Macrophage-stimulating protein receptor (Homo sapiens, UniProt Q04912).
Experiment [2] has as its target T1, Serine/threonine-protein kinase TAO2 (Homo sapiens, UniProt Q9UL54).
T1 sequence (Q9UL54 whole entry): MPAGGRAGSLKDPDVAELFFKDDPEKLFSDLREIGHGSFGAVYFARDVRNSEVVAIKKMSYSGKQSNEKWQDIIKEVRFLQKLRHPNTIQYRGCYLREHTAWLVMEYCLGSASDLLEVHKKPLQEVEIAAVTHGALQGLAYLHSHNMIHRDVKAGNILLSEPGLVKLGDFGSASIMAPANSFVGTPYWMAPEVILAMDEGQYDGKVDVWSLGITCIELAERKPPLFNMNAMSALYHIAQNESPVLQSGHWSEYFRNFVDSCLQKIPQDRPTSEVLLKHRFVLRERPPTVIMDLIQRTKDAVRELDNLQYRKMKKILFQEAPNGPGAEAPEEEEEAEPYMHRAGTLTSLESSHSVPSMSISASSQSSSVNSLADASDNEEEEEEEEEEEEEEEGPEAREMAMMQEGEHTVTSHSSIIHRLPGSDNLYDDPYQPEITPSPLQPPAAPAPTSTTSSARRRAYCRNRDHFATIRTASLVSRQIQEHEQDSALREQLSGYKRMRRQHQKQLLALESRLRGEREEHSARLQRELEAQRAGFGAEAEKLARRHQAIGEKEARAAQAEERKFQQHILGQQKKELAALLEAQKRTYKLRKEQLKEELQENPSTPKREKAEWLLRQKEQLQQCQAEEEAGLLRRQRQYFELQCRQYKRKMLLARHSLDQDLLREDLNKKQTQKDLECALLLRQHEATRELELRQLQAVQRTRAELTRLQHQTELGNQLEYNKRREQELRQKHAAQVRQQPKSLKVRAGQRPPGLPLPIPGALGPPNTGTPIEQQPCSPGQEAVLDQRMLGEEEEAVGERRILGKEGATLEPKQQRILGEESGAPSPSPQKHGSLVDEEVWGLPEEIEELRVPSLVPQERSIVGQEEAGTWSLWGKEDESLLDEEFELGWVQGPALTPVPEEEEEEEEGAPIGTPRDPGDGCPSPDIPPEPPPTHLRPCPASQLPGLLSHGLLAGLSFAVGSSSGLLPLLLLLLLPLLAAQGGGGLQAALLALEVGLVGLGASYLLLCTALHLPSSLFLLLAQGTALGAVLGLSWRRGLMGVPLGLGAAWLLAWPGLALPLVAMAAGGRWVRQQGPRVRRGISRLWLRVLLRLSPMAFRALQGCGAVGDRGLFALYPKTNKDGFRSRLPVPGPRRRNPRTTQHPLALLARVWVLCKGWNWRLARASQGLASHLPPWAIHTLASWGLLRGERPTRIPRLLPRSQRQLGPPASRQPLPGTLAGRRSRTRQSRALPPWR

For experiment [3], the target named is T2, Dynamin-like GTPase OPA1, mitochondrial (Homo sapiens, UniProt O60313).
T2 sequence (O60313 whole entry): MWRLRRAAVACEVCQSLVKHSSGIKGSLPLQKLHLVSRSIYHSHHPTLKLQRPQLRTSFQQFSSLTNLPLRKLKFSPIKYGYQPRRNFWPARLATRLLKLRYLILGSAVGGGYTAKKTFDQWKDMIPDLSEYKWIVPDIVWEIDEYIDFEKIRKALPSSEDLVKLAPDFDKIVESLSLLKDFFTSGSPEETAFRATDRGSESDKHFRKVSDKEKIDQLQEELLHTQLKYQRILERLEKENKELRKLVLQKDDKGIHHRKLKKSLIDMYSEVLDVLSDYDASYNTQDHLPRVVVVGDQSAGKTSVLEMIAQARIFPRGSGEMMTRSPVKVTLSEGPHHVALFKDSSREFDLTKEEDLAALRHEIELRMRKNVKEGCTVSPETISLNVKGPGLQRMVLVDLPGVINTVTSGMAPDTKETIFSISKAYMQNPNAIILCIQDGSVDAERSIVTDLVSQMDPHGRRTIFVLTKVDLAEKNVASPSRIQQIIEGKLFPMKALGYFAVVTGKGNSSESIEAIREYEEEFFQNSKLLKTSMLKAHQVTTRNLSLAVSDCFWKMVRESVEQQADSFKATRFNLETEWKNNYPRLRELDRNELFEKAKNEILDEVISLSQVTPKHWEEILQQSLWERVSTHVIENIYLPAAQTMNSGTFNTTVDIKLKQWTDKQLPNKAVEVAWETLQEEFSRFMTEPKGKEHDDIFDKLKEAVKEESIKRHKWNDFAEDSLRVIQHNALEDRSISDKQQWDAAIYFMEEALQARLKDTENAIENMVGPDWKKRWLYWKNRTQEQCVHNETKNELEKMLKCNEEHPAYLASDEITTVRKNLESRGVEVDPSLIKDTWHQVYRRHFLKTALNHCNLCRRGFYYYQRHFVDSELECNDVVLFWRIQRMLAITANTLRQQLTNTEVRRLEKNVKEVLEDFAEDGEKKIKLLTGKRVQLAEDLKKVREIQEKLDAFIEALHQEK

Experiment [4] addresses Casein kinase I isoform gamma-1 (Homo sapiens, UniProt Q9HCP0).
Experiment [5] addresses T3, Serine/threonine-protein kinase Chk1 (Homo sapiens, UniProt O14757).
T3 sequence (O14757 whole entry): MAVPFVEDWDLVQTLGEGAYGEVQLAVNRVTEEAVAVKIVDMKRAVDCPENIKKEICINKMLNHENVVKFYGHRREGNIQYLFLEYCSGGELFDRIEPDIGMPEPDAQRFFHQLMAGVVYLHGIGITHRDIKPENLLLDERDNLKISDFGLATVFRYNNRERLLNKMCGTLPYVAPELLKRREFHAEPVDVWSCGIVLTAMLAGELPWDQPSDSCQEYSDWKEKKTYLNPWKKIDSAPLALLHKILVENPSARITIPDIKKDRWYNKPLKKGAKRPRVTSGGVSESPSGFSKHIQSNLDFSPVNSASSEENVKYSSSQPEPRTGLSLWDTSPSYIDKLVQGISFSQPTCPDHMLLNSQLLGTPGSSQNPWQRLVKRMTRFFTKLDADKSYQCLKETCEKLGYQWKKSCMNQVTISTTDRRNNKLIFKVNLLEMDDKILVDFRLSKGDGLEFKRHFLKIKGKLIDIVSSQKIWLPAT

Activity calls are given as the source filed them. For most assays here, no stated cut-off is given here; in the data, actives have a measured Kd and inactives only a lower limit.

Macrophage-stimulating protein receptor, sequence (Q04912 25-304 limits assumed): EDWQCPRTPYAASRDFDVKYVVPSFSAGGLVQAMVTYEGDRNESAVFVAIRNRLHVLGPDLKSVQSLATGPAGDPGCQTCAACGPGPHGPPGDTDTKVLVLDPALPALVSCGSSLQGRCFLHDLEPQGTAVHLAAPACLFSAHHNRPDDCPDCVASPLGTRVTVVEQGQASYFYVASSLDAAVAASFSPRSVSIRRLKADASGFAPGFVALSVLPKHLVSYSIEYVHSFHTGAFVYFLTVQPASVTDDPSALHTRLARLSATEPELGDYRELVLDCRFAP
Macrophage-stimulating protein receptor, sequence (Q04912 310-1400 limits assumed): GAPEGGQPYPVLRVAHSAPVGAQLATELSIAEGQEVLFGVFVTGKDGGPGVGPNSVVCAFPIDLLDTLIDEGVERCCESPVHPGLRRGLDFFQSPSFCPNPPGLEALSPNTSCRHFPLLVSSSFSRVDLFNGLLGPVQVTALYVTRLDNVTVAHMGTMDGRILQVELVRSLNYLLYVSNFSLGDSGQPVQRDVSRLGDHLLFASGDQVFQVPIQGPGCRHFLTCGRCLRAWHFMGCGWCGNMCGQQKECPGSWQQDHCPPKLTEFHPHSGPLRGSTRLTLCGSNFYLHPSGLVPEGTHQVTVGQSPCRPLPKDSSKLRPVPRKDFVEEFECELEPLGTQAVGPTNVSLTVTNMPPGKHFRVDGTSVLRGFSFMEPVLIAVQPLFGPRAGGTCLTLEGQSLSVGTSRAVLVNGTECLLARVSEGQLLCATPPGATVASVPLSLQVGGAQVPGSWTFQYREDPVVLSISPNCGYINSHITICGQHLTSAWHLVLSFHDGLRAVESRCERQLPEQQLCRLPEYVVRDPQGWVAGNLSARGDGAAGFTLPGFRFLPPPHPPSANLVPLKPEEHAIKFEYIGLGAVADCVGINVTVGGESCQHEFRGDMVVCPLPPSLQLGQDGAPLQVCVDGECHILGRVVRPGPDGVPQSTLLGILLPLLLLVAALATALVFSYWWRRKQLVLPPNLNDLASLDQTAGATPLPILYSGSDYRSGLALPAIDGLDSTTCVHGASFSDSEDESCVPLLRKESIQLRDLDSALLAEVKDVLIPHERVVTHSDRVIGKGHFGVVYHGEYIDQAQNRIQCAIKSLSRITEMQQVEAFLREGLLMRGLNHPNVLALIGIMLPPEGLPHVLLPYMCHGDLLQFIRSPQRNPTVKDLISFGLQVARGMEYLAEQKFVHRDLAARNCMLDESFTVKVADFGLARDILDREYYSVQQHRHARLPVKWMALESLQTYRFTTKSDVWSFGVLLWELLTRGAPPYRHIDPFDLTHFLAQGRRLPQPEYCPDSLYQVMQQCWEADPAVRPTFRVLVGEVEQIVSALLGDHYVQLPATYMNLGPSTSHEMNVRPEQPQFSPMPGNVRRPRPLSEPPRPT
Casein kinase I isoform gamma-1, sequence (Q9HCP0 whole entry, canonical isoform): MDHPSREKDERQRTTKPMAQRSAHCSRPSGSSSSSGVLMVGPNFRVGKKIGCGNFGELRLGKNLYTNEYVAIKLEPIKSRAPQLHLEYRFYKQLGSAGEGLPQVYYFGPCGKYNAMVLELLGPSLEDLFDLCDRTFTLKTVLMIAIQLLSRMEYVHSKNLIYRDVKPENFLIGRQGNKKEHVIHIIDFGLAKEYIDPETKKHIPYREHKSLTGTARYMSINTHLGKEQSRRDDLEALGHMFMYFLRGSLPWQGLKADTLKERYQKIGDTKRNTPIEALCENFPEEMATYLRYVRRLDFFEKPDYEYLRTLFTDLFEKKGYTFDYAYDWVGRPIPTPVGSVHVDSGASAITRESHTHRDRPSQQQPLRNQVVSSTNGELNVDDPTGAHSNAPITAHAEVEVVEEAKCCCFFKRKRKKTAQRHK

In general, Kd refers to the free concentration of one partner at which half of the binding sites on the other are occupied at equilibrium, for simple one-to-one binding. As to `CNC(=O)c1nn(C)c2c1C(C)(C)Cc1cnc(Nc3ccc(N4CCN(C)CC4)cc3)nc1-2` [MILCICLIB], the Kd in experiment [1] is 1.99 µM (active); in experiment [2], 5.25 µM (active); in experiment [3], > 30 µM (inactive); in experiment [4], > 30 µM (inactive); in experiment [5], > 30 µM (inactive).

With `NC1(c2ccc(-c3nc4ccn5c(=O)[nH]nc5c4cc3-c3ccccc3)cc2)CCC1` [MK-2206], the Kd in experiment [1], in experiment [2], in experiment [3], in experiment [4] and in experiment [5] was > 30 µM (inactive) throughout.

As to `CN(C[C@@H]1COCCO1)S(=O)(=O)Nc1ccc2ccc3ncc(-c4cnn(C)c4)cc3c(=O)c2c1` [MK-2461], the Kd in experiment [1] is 0.278 µM (active); in experiment [2], > 30 µM (inactive); in experiment [3], > 30 µM (inactive); in experiment [4] it was > 30 µM (inactive); in experiment [5], > 30 µM (inactive).

`Cn1cc(-c2cnc3ccc4ccc(CS(=O)(=O)NCc5ccccn5)cc4c(=O)c3c2)cn1` [MK-8033]: the Kd is 0.956 µM (active) in experiment [1]; > 30 µM (inactive) in experiment [2]; > 30 µM (inactive) in experiment [3]; > 30 µM (inactive) in experiment [4]; > 30 µM (inactive) in experiment [5].

`FC(F)(F)c1ccc(/C=C/c2nc(COc3ccc(CCCCn4ccnn4)cc3)co2)cc1` [MUBRITINIB]: the Kd in experiment [1], in experiment [2], in experiment [3], in experiment [4] and in experiment [5] was > 30 µM (inactive) in each case.

For the compound `COc1ncc(-c2ccc3nccc(-c4ccnnc4)c3c2)cc1NS(=O)(=O)c1ccc(F)cc1F` [OMIPALISIB], the Kd in experiment [1], in experiment [2], in experiment [3], in experiment [4] and in experiment [5] was > 30 µM (inactive) each time.

As for `CCOc1cc2ncc(C#N)c(Nc3ccc(F)c(Cl)c3)c2cc1NC(=O)/C=C/CN(C)C` [PELITINIB], the Kd in experiment [1], in experiment [2], in experiment [3], in experiment [4] and in experiment [5] was > 30 µM (inactive) in each case.

Turning to `CCCCCCCCCCCCCCCCCCOP(=O)([O-])OC1CC[N+](C)(C)CC1` [PERIFOSINE], the Kd in experiment [1], in experiment [2], in experiment [3], in experiment [4] and in experiment [5] was > 30 µM (inactive) in each case.

Turning to `Cc1nc(Nc2n[nH]c3c2CN(C(=O)N[C@H](CN(C)C)c2ccccc2)C3(C)C)c2sccc2n1` [PF-03758309], the Kd is > 30 µM (inactive) in experiment [1]; > 30 µM (inactive) in experiment [2]; > 30 µM (inactive) in experiment [3]; > 30 µM (inactive) in experiment [4]; 0.21 µM (active) in experiment [5].

`CNC(=O)c1cc(Oc2ccc(NC(=O)Nc3cc(C(C)(C)C)nn3-c3ccc4ncccc4c3)c(F)c2)ccn1` [REBASTINIB]: the Kd was 0.732 µM (active) in experiment [1]; > 30 µM (inactive) in experiment [2]; > 30 µM (inactive) in experiment [3]; > 30 µM (inactive) in experiment [4]; > 30 µM (inactive) in experiment [5].

With `CO[C@H]1C[C@@H]2CC[C@@H](C)[C@@](O)(O2)C(=O)C(=O)N2CCCC[C@H]2C(=O)O[C@H]([C@H](C)C[C@@H]2CC[C@@H](OP(C)(C)=O)[C@H](OC)C2)CC(=O)[C@H](C)/C=C(\C)[C@@H](O)[C@@H](OC)C(=O)[C@H](C)C[C@H](C)/C=C/C=C/C=C/1C` [RIDAFOROLIMUS], the Kd in experiment [1], in experiment [2], in experiment [3], in experiment [4] and in experiment [5] was > 30 µM (inactive) throughout.

Take `N#CC1(c2ccc(NC(=O)c3cccnc3NCc3ccncc3)cc2)CCCC1` [RIVOCERANIB]: the Kd in experiment [1], in experiment [2], in experiment [3], in experiment [4] and in experiment [5] was > 30 µM (inactive) each time.

Source of the values: ChEMBL document CHEMBL3991601, “The target landscape of clinical kinase drugs” (Science, 2017).
